These results are taken from US9784731B2, “Methods of monitoring and analyzing metabolic activity profiles diagnostic and therapeutic uses of same” (priority 2011, dated 2017).

One may read the pKa as the negative logarithm of the acid dissociation constant.

The conditions of data set [1]: in aqueous (physiological) buffers; cited from earlier work.
Data set [2] has as its system many cell types. As to conditions: intracellular pH measurements, overnight incubation at 2 mM; cited from earlier work.
Data set [3] has as its system hPBMCs. The data set can be described thus: metabolic activity (MA) test, extracellular acidification of PBMCs. The format is cell-based, human. As to conditions: hPBMCs of cancer patients, increasing PSA concentrations, FIGS. 8A-D. As to the method: Fresh peripheral blood mononuclear cells (PBMCs) were isolated by Ficoll-Paque (UNI-SEP, Novamed) and gradient centrifugation. The pellet was resuspended in working solution (WS) (PBS with calcium and magnesium) including the fluorescent probe (HPTS) at a final concentration of 5×10^6 cells/ml.
Each well in a black non-binding, low-volume 384 multi-well plate (Greiner Bio-One) was loaded with 10 μl of the PBMCs solution and 10 μl of working solution plus HPTS including one of ten reagents in 8 increasing concentrations. Thus the final concentration of the probe in each well was 1 μM, and the final concentration of the PBMCs was 2.5×10^6 cells/ml in 20 μl physiological working solution containing 10 mM phosphate buffer around pH 7.3. […] The acidification process was monitored each 5 min during 1 hour of incubation at 37° C. by a commercial fluorescence scanner (TECAN Infinite M200). First, the scanner monitored the acidification process without sealing (“OPEN” mode) during 30 min (6 cycles) and then, to avoid ventilation of CO2 and NH3 from each well, the multi-well plate was sealed hermetically (ThermalSeal RT™, EXCEL Scientific, Inc.) (“CLOSE” mode). Next, the acidification process was monitored again during 30 min (6 cycles). In order to increase the signal to noise ratio, the fluorescence intensities at 513 nm were measured sequentially under excitation at 455 nm and 403 nm per well. […]

Take `O=S(=O)(O)c1cc(O)c2ccc3c(S(=O)(=O)O)cc(S(=O)(=O)O)c4ccc1c2c34` [HPTS, 8-Hydroxypyrene-1,3,6-trisulfonic acid]: the pKa in data set [1] is given as about 7.3. In data set [2], the toxicity result is “low-toxicity”.
As for “PSA: normal prostate tissue specific antigen peptide (146-154aa) recognized by cytotoxic T lymphocytes (PALGTTCYA; UniProt P07288 146-154, looked up, fragment)”, in data set [3], the “MA-test profile under stimulation” value was “marked peaks at optimal concentrations”.
